Data reported in patent US20250313563A1, “GLYCOGEN SYNTHASE KINASE 3 INHIBITORS AND USES THEREOF” (The Broad Institute, Inc., priority 2022, published 2025).
Like-named read-outs stand apart in the source and are kept apart here.

Experiments:
[1] = target: GSK3α (GST-full length GSK3α) (Homo sapiens (Human), UniProt P49840); assay: GSK3α TR-FRET kinase assay; type: biochemical
In short: (§1)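 Readout: anti-pSer641 Tb antibody/streptavidin-d2 signal after 60 min, expressed as 665/615 ratio and fitted versus log concentration for IC50. Enzyme: 1 nM GST-GSK3 (α or β), compound-preincubated 30 min. Conditions: pH 7.5 Tris buffer with MgCl2, DTT, BSA; ATP at 4 or 2 μM, or 1 mM; 100 min.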

[2] = target: GSK3b (GST-full length GSK3b) (Homo sapiens (Human), UniProt P49841); assay: GSK3b TR-FRET kinase assay; type: biochemical
Sequence of GSK3b (GST-full length GSK3b) (P49841 whole entry): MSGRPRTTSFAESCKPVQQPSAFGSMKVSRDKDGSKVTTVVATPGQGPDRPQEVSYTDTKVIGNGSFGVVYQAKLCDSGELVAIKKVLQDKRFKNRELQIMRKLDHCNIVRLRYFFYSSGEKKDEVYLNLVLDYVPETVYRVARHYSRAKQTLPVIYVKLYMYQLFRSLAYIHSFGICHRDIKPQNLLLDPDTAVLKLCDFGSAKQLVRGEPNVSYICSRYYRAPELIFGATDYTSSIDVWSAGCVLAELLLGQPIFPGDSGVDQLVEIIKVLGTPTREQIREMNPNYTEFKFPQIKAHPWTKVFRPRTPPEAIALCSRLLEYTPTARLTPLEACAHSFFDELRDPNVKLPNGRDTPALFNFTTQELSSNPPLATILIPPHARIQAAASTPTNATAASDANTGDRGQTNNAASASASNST
In short: as §1

[3] = 1 nM GSK3α, 4 μM ATP, 30 minute preincubation, Table 16, read-out: GSK3-A TR-FRET BIOCHEMICAL (TR-FRET)
[4] = 1 nM GSK3b, 2 μM ATP, 30 minute preincubation, Table 16, read-out: GSK3-B TR-FRET BIOCHEMICAL (TR-FRET)
[5] = 1 nM GSK3α, 4 μM ATP, 30 minute preincubation, Table 16, read-out: GSK3-A TR-FRET BIOCHEMICAL (TR-FRET), IC50
[6] = 1 nM GSK3b, 2 μM ATP, 30 minute preincubation, Table 16, read-out: GSK3-B TR-FRET BIOCHEMICAL (TR-FRET), IC50
[7] = read-out: GSK3-B (TR-FRET 1 mM ATP), GMean, IC50, 1 mM ATP, geometric mean
[8] = read-out: GSK3-A (TR-FRET 1 mM ATP), GMean, IC50, 1 mM ATP, geometric mean

Sequence of GSK3α (GST-full length GSK3α) (P49840 whole entry): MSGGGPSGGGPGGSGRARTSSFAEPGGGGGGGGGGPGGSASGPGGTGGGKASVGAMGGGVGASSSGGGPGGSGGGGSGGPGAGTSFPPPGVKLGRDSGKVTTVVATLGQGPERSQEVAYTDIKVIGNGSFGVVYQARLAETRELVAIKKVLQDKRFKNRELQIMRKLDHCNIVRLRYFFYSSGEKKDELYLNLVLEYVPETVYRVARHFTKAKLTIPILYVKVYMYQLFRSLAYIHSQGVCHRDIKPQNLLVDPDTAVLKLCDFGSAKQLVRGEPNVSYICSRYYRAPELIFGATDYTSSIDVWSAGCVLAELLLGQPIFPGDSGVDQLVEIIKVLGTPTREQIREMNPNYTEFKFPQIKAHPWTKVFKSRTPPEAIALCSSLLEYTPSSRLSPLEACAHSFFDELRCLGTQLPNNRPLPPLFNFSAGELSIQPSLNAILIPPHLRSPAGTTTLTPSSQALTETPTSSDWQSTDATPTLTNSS

| IC50 [1, 3] [µM] | IC50 [2, 4] [µM] | Structure (SMILES) | further results |
| --- | --- | --- | --- |
| 0.1 to 1 | 0.1 to 1 | CC[C@]1(c2ccccc2)C2=C(Nc3n[nH]cc31)[C@H](F)C(C)(C)CC2=O [Compound 957200] | IC50 ([1]; GSK3-A (TR-FRET 1 mM ATP), GMean, IC50, 1 mM ATP, geometric mean): > 5 µM; IC50 ([2]; GSK3-B (TR-FRET 1 mM ATP), GMean, IC50, 1 mM ATP, geometric mean): > 5 µM |
| 0.1 to 1 | 1 to 5 | CC[C@]1(c2ccccc2)C2=C(CC(C)(C)[C@H](F)C2=O)Nc2n[nH]cc21 [Compound 957403] | – |
| > 5 | > 5 | CC[C@]1(c2ccccc2)C2=C(CC(C)(C)[C@@H](F)C2=O)Nc2n[nH]cc21 [Compound 957404] | – |
| 0.1 to 1 | 1 to 5 | CC[C@@]1(c2ccccc2)C2=C(CC(C)(C)[C@H](F)C2=O)Nc2n[nH]cc21 [Compound 957405] | – |
| > 5 | > 5 | CC[C@@]1(c2ccccc2)C2=C(CC(C)(C)[C@@H](F)C2=O)Nc2n[nH]cc21 [Compound 957406] | – |
| – | – | CC[C@@]1(c2cccc(C(F)(F)F)c2)C2=C(CC(C)(C)NC2=O)Nc2n[nH]c(F)c21 [Compound 957497] | IC50 [1, 5]: > 5 µM; IC50 [2, 6]: > 5 µM |
| 0.1 to 1 | 1 to 5 | CCC1(c2cccc(-c3cnn(C)c3)c2)C2=C(Nc3n[nH]cc31)C(F)C(C)(C)CC2=O (stereo not shown) [Compound 957504] | IC50 [2, 7]: > 5 µM |
| ≤ 0.1 | 1 to 5 | CC[C@@]1(c2cccc(-c3cnn(C)c3)c2)C2=C(Nc3n[nH]cc31)[C@H](F)C(C)(C)CC2=O [Compound 957505] | IC50 [1, 8]: 1 to 5 µM; IC50 [2, 7]: > 5 µM |
| ≤ 0.1 | ≤ 0.1 | CC[C@@]1(c2cccc(-c3ccnn3C)c2)C2=C(Nc3n[nH]cc31)[C@H](F)C(C)(C)CC2=O [Compound 957507] | IC50 [1, 8]: ≤ 0.1 µM; IC50 [2, 7]: 1 to 5 µM |
| > 5 | > 5 | CC[C@]1(c2cccc(-c3ccnn3C)c2)C2=C(Nc3n[nH]cc31)[C@H](F)C(C)(C)CC2=O [Compound 957508] | – |
| 0.1 to 1 | > 5 | CCC1(c2cccc(-c3ccnn3C)c2)C2=C(Nc3n[nH]cc31)C(F)C(C)(C)CC2=O (stereo not shown) [Compound 957509] | – |
| 1 to 5 | > 5 | CCC1(c2cccc(-c3cnn(C)c3)c2)C2=C(Nc3n[nH]cc31)C(F)C(C)(C)CC2=O (stereo not shown) [Compound 957510] | – |
| – | – | CC[C@]1(c2cccc(C(F)(F)F)c2)C2=C(CC(C)(C)NC2=O)Nc2n[nH]c(F)c21 [Compound 957518] | IC50 [1, 5]: ≤ 0.1 µM; IC50 [2, 6]: 0.1 to 1 µM |
| ≤ 0.1 | 0.1 to 1 | CCC1(c2cccc(-c3ccncc3)c2)C2=C(Nc3n[nH]cc31)C(F)C(C)(C)CC2=O (stereo not shown) [Compound 959341] | IC50 [1, 8]: 1 to 5 µM; IC50 [2, 7]: > 5 µM |
| 1 to 5 | > 5 | CCC1(c2cccc(-c3ccncc3)c2)C2=C(Nc3n[nH]cc31)C(F)C(C)(C)CC2=O (stereo not shown) [Compound 959342] | – |
| > 5 | > 5 | CC[C@]1(c2cccc(-c3ccncc3)c2)C2=C(Nc3n[nH]cc31)[C@@H](F)C(C)(C)CC2=O [Compound 959344] | – |
| ≤ 0.1 | ≤ 0.1 | CCC1(c2cccc(-c3cncn3C(C)C)c2)C2=C(Nc3n[nH]cc31)C(F)C(C)(C)CC2=O (stereo not shown) [Compound 963155] | – |
